Here are results for one compound from patent US20180193453A1, “TREATMENT-RESISTANCE REDUCING AGENT FOR TREATMENT-RESISTANT CANCER” (NATIONAL UNIVERSITY CORPORATION HOKKAIDO UNIVERSITY, priority 2015, published 2018).

The subject of one assay is A549-DR-IL-34-KO cells. Kind of assay: MTT cell viability assay with or without DOX. Format: cell-based, human. The note with it: DOX 1 μM, 72 hours, FIG. 7 upper.
Another assay concerns A549-DR cells. Kind of assay: MTT cell viability assay with or without DOX. Format: cell-based, human. The conditions noted are these: DOX 1 μM, 72 hours, FIG. 7 upper. As for the experimental part:
Human lung adenocarcinoma cell line A549 was obtained from the American Type Cell Culture (ATCC, USA). Cell culture was carried out at 37° C. in an atmosphere of 5% CO2 using Dulbecco's Modified Eagle's Medium (DMEM) (SIGMA) supplemented with fetal bovine serum (at a final concentration of 10%), penicillin (at a final concentration of 100 U/mL) and streptomycin (at a final concentration of 100 μg/mL). A549 cells were cultured at 37° C. in an atmosphere of 5% CO2, in DMEM in which the DOX concentration was increased stepwise from 0.01 to 1 μM, and then cells acquiring DOX resistance were selected to generate a DOX-resistant A549 cell line (A549-DR). The resultant A549-DR cells maintained their drug resistance by exposure to 1 μM DOX.
A549-DS, A549-DR, and A549-DR-IL-34-KO cells were cultured in DMEM medium with or without DOX (at a final concentration of 1 μM). After 72 hours of culturing, an MTT assay was performed (using a cell proliferation determination kit, available from Roche Applied) to determine the viability of cells. Similarly, A549-DR cells were cultured in a medium with or without DOX in which an anti-IL-34 neutralizing antibody was added at a final concentration of 0.01 to 10 μg/mL, and the viability of cells was determined in a similar way.

In the next assay the test system is A549-DR tumor. Put plainly: Tumor size in humanized NOG mice with DOX administration. The conditions noted are these: DOX 10 mg/kg/mouse intravenously, twice a week, 4 times, vs PBS, FIG. 8. Format: in vivo.
Another assay relates to A549-DR-IL-34-KO tumor. Described as above. Format: in vivo. The conditions noted are these: DOX 10 mg/kg/mouse intravenously, twice a week, 4 times, vs PBS, FIG. 8.

For `COc1cccc2c1C(=O)c1c(O)c3c(c(O)c1C2=O)C[C@@](O)(C(=O)CO)C[C@@H]3O[C@H]1C[C@H](N)[C@H](O)[C@H](C)O1` [DOX, doxorubicin], in the assay on A549-DR-IL-34-KO cells, the “viability of cells (sensitivity to DOX)” value is “restored the sensitivity to DOX”. Besides, the viability of cells result in the assay with A549-DR cells is given as “did not have a decreased viability”. For the same compound, the tumor size entry with A549-DR tumor is “did not change greatly”; in the assay on A549-DR-IL-34-KO tumor it was “significantly decreased”.
